According to PubChem BioAssay (NCI):
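Cells were grown in 96-well plates and exposed to each compound for 48 hours at five concentrations; endpoints were interpolated linearly between bracketing concentrations, or set to the highest concentration if not reached. TGI is the concentration that stops growth completely.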

Tests used:
Experiment in all cases: DTP human tumour cell line panel, 48 h
[1] = system: 786-0 renal
[2] = system: A498 renal
[3] = system: A549 NSCLC
[4] = system: BT-549 breast
[5] = system: CAKI-1 renal
[6] = system: COLO 205 colon
[7] = system: DU-145 prostate
[8] = system: EKVX NSCLC
[9] = system: HCC-2998 colon
[10] = system: HCT-116 colon
[11] = system: HCT-15 colon
[12] = system: HL-60(TB) leukemia
[13] = system: HOP-62 NSCLC
[14] = system: HOP-92 NSCLC
[15] = system: HS 578T breast
[16] = system: HT29 colon
[17] = system: IGROV1 ovarian
[18] = system: K-562 leukemia
[19] = system: KM12 colon
[20] = system: M14 melanoma
[21] = system: MALME-3M melanoma
[22] = system: MCF7 breast
[23] = system: MDA-MB-435
[24] = system: MDA-N
[25] = system: MOLT-4 leukemia
[26] = system: NCI-H23 lung
[27] = system: NCI-H460 lung
[28] = system: NCI-H522 lung
[29] = system: OVCAR-3 ovarian
[30] = system: OVCAR-4 ovarian
[31] = system: OVCAR-5 ovarian
[32] = system: OVCAR-8 ovarian
[33] = system: PC-3 prostate
[34] = system: RPMI-8226 leukemia
[35] = system: RXF 393 renal
[36] = system: SF-268 CNS
[37] = system: SF-295 CNS
[38] = system: SF-539 CNS
[39] = system: SK-MEL-28 melanoma
[40] = system: SK-MEL-5 melanoma
[41] = system: SK-OV-3 ovarian
[42] = system: SN12C renal
[43] = system: SNB-19 CNS
[44] = system: SNB-75 CNS
[45] = system: SR leukemia
[46] = system: SW-620 colon
[47] = system: TK-10 renal
[48] = system: U251 CNS
[49] = system: UACC-257 melanoma
[50] = system: UACC-62 melanoma
[51] = system: UO-31 renal
[52] = system: ACHN renal
[53] = system: LOX IMVI melanoma
[54] = system: MDA-MB-231 breast
[55] = system: NCI/ADR-RES ovarian
[56] = system: SK-MEL-2 melanoma
[57] = system: T-47D breast

Measured: TGI

O=C1O/C(=C(/Cl)c2cccc3ccccc23)c2ccccc21
55.2 µM: [44]
not listed: [52] | [53] | [54] | [55] | [56] | [57]
> 100 µM: all other assays above

O=C(N/N=C\c1cccc(O)c1)c1ccncc1
not listed: [6] | [12] | [22] | [34] | [38] | [40] | [41]
> 100 µM: all other assays above
